Laboratory results from PubChem BioAssay AID2060354 (Molecular Pharmacology Branch, DTP, NCI, 2025).
Values joined by “and” are separate entries in the source; they are usually repeats but may differ in a detail not shown here. Equal entries are not always repeated. Values belong to the compound of their own block, whether it stands above or below them.

System: 519858-162-T-J1-PDC spheroid growth inhibition
Test: Anticancer human tumor 519858-162-T-J1-PDC patient-derived colon adenocarcinoma cell line growth inhibition [TAK]
Details: spheroids with HUVEC and MSC; for viability, T/C: stronger effect = lower value
Method in brief: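 Spheroids of 60% malignant cells, 25% HUVEC and 15% hMSC were exposed to targeted agents combined with TAK-243 or ipatasertib. Concentrations started at or near clinical Cmax (10 microM if unknown) and descended in half-log steps.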
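Further: each agent tested in combination with TAK-243 or ipatasertib; spheroids exposed to drugs for 7 days.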

IC50 (curve of compound): > 100 nM
SMILES: CC(C)CC(NC(=O)CNC(=O)c1cc(Cl)ccc1Cl)B1OC(=O)CC(CC(=O)O)(C(=O)O)O1 (centres undefined)
viability, T/C (compound 0.000316 µM): 86.2% and 83.8% | viability, T/C (compound 0.00316 µM): 106% and 95.6% | viability, T/C (compound 0.01 µM): 92.6% and 72.9% | viability, T/C (compound 0.0316 µM): 74.9% and 77% | viability, T/C (compound 0.1 µM): 74.5% and 84.2%

SMILES: Cc1nc(NC(=O)N2CCCC2C(N)=O)sc1-c1ccnc(C(C)(C)C(F)(F)F)c1 (centres undefined) + CC(C)NCC(C(=O)N1CCN(c2ncnc3c2C(C)CC3O)CC1)c1ccc(Cl)cc1
IC50 (curve of first compound, second compound 0.3 µM): > 10000 nM | IC50 (curve of first compound, second compound 0.949 µM): > 10000 nM | IC50 (curve of first compound, second compound 3 µM): > 10000 nM | IC50 (curve of first compound, second compound 9.49 µM): > 10000 nM | IC50 (curve of first compound, second compound 30 µM): > 10000 nM | viability, T/C (second compound 0.3 µM, first compound 0.0316 µM): 110% | viability, T/C (second compound 0.3 µM, first compound 0.1 µM): 88.2% | viability, T/C (second compound 0.3 µM, first compound 0.316 µM): 81% | viability, T/C (second compound 0.3 µM, first compound 1 µM): 81.7% | viability, T/C (second compound 0.3 µM, first compound 3.16 µM): 68.5% | viability, T/C (second compound 0.3 µM, first compound 10 µM): 52.8% | viability, T/C (second compound 0.949 µM, first compound 0.0316 µM): 85.3% | viability, T/C (second compound 0.949 µM, first compound 0.1 µM): 94.8% | viability, T/C (second compound 0.949 µM, first compound 0.316 µM): 104% | viability, T/C (second compound 0.949 µM, first compound 1 µM): 79.9% | viability, T/C (second compound 0.949 µM, first compound 3.16 µM): 86.9% | viability, T/C (second compound 0.949 µM, first compound 10 µM): 66.2% | viability, T/C (second compound 3 µM, first compound 0.0316 µM): 80% | viability, T/C (second compound 3 µM, first compound 0.1 µM): 77.5% | viability, T/C (second compound 3 µM, first compound 0.316 µM): 76.9% | viability, T/C (second compound 3 µM, first compound 1 µM): 75.1% | viability, T/C (second compound 3 µM, first compound 3.16 µM): 80.5% | viability, T/C (second compound 3 µM, first compound 10 µM): 65.7% | viability, T/C (second compound 9.49 µM, first compound 0.0316 µM): 85.6% | viability, T/C (second compound 9.49 µM, first compound 0.1 µM): 74.2% | viability, T/C (second compound 9.49 µM, first compound 0.316 µM): 81.4% | viability, T/C (second compound 9.49 µM, first compound 1 µM): 74.4% | viability, T/C (second compound 9.49 µM, first compound 3.16 µM): 71.2% | viability, T/C (second compound 9.49 µM, first compound 10 µM): 62.7% | viability, T/C (second compound 30 µM, first compound 0.0316 µM): 94.6% | viability, T/C (second compound 30 µM, first compound 0.1 µM): 82% | viability, T/C (second compound 30 µM, first compound 0.316 µM): 91.5% | viability, T/C (second compound 30 µM, first compound 1 µM): 80.2% | viability, T/C (second compound 30 µM, first compound 3.16 µM): 72.4% | viability, T/C (second compound 30 µM, first compound 10 µM): 72.2%

IC50 (curve of compound): 111 nM and 315 nM
SMILES: COc1c(OCCCN2CCOCC2)ccc2c3n(c(=NC(=O)c4cnc(N)nc4)nc12)CCN3
viability, T/C (compound 0.00316 µM): 95.7% and 91.3% | viability, T/C (compound 0.01 µM): 80.9% and 100% | viability, T/C (compound 0.0316 µM): 81.7% and 72.2% | viability, T/C (compound 0.1 µM): 48.8% and 62.1% | viability, T/C (compound 0.316 µM): 43.9% and 52.3% | viability, T/C (compound 1 µM): 33.8% and 44.4%

IC50 (curve of compound): > 100 nM
SMILES: COC1CC2CCC(C)C(O)(O2)C(=O)C(=O)N2CCCCC2C(=O)OC(C(C)CC2CCC(OCCO)C(OC)C2)CC(=O)C(C)C=C(C)C(O)C(OC)C(=O)C(C)CC(C)C=CC=CC=C1C (centres undefined)
viability, T/C (compound 0.000316 µM): 98.9% and 86.7% | viability, T/C (compound 0.00316 µM): 88.3% and 111% | viability, T/C (compound 0.01 µM): 76.2% and 91.2% | viability, T/C (compound 0.0316 µM): 89.6% and 75.7% | viability, T/C (compound 0.1 µM): 71.5% and 82.5%
